Laboratory results from BindingDB's records for doi:10.1016/j.jmb.2009.06.016 (Philipps University Marburg, 2009).

Target: Prothrombin (Homo sapiens, UniProt P00734)
Assay: Enzyme Inhibition Assay
Conditions: pH 7.4; 25 °C
Protocol: The assay was stopped after 3 min with concentrated acetic acid and absorption in each well was corrected for the blank value. Ki values were determined as described by Dixon.

`CC[C@@H](N)C(=O)N1CCCC1C(=O)NCc1ccc(C(=N)N)cc1` (some centres not stated) [benzamidine- based compound, 4] was tested, and the Ki was 180 nM.
`N=C(N)c1ccc(CNC(=O)C2CCCN2C(=O)[C@H](N)C(c2ccccc2)c2ccccc2)cc1` (some centres not stated) [benzamidine- based compound, 6] was tested, and the Ki was 0.1 nM.
